Experimental data: patent publication US11555006B2, “Elucidation of novel 13-series resolvins that increase with atorvastatin and clear infections” (The Brigham and Women's Hospital, Inc., priority 2015, dated 2023)

Experiments:
[1] = system: nitric oxide synthase; test: L-NAME and atorvastatin in E. coli inoculated mice, plasma RvT; assay type: in vivo
Method: In a separate set of experiments, mice were inoculated with E. coli; after 60 min they were given L-NAME (24 mg/kg) and 5 min later atorvastatin (5 μg) via i.v. injection. Plasma was obtained after 5 h via cardiac puncture and LM levels were investigated by lipid mediator metabololipidomics. For all animal experiments mice were randomized to vehicle or treatment groups without blinding.

[2] = system: human neutrophil-endothelial cell co-incubations; test: Lipid mediator levels in human endothelial cell incubations and neutrophil-endothelial cell co-incubations; assay type: cell-based; conditions: atorvastatin 0.03-30 μM
Method: Prior to sample extraction, deuterated internal standards (d4-PGE2, d5-LXA4, d4-RvD2, d4-LTB4 and d8-5S-HETE) representing regions of interest in the chromatographic analysis (500 pg each) were added to facilitate quantification. Extracted samples were analyzed by a LC-MS-MS system, Qtrap 6500 (AB Sciex) equipped with a Shimadzu SIL-20AC autoinjector and LC-20AD binary pump (Shimadzu Corp.). An Agilent Eclipse Plus C18 column (100×4.6 mm×1.8 μm) was used with a gradient of methanol/water/acetic acid of 55:45:0.01 (vol:vol:vol) that was ramped to 85:15:0.01 (vol:vol:vol) over 10 min and then to 98:2:0.01 (vol:vol:vol) for the next 8 min. This was subsequently maintained at 98:2:0.01 (vol:vol:vol) for 2 min. The flow rate was maintained at 0.4 ml/min. To monitor and quantify the levels of lipid mediators, a multiple reaction monitoring (MRM) method was developed with signature ion fragments (m/z) for each molecule monitoring the parent ion (Q1) and a characteristic daughter ion (Q3). […] Calibration curves were determined using a mixture of lipid mediators obtained via total organic synthesis, where these lipid mediators were not available (RvT1, RvT2, RvT3, RvT4 and 13-HDPA); known mediators with similar chromatographic properties (RvD2 for RvT1, RvD1 for RvT2 and RvT3; RvD5 for RvT4; 13-HDHA for 13-HDPA) were used. […]

[3] = system: E. coli infections in mice; test: E. coli peritonitis in mice; assay type: in vivo; conditions: for In vivo: circulating platelet-leukocyte aggregates / In vivo: exudate pro-inflammatory eicosanoid levels during infections / In vivo: infection induced hypothermia / In vivo: macrophage efferocytosis of apoptotic neutrophils / In vivo: murine leukocyte phagocytosis of E. coli / In vivo: neutrophil recruitment during infections / In vivo: protective actions of atorvastatin in infections / In vivo: pyroptosis: summary table of bioactions
Method: All animal experiments were conducted in accordance with the Harvard Medical Area Standing Committee on Animals (protocol no. 02570). Mice (male FvB, 6-8 weeks old, Charles River, fed lab diet containing essential fatty acids as from supplier) were anesthetized with isoflurane and microbial peritonitis initiated. Briefly, test compounds or vehicle were injected i.p. or i.v. 5 min prior to live E. coli (serotype 06:K2:H1; 1×10^5 or 1×10^7 CFU/mouse). At designated time intervals mice were harvested, blood was collected via cardiac puncture in heparin, and peritoneal exudates were collected in 4 ml of PBS. The cellular composition in the exudates was determined using Turks solution and light microscopy, and by flow cytometry. For flow cytometry, exudate cells were incubated with anti-mouse CD16/CD32 (eBiosciences, 20 min, 4° C., in PBS containing 5% fetal calf serum-staining solution), followed by incubation with FITC-conjugated anti-mouse Ly6G antibody (clone: 1A8, eBiosciences), PE-conjugated anti-mouse F4/80 antibody (clone:BM8, eBiosciences) and PerCP-Cy5.5-conjugated anti-mouse CD11b antibody (clone:M1/70, eBiosciences) for 30 min (4° C., in staining solution). To assess bacterial phagocytosis in peritoneal exudate leukocytes, exudate cells were incubated with PerCP-Cy5.5-conjugated anti-mouse CD11b antibody (30 min, 4° C., in staining solution), then fixed and permeabilized using BD Perm/Wash™ Buffer (BD Biosciences) following manufacturer's instructions and incubated with FITC-conjugated anti-E. coli antibody (GenTex, 30 min, 4° C., in BD Perm/Wash™ Buffer). Efferocytosis in infectious exudates was assessed by incubating exudate leukocytes with PE-conjugated anti-mouse F4/80 antibody (30 min, 4° C., in staining solution), then fixed and permeabilized using BD Perm/Wash™ Buffer (BD Biosciences) and incubated with FITC-conjugated anti-mouse Ly6G antibody (30 min, 4° C., in BD Perm/Wash™ Buffer). Body temperatures were assessed using an Infrared thermometer (Fluke). Bacterial counts in peripheral blood and inflammatory exudates were determined by overnight cultures (37° C.) of serially diluted samples on LB agar plates. Caspase 1 levels were assessed by incubation of exudate cells with PerCP-Cy5.5-conjugated anti-mouse CD11b antibody (30 min, 4° C., in staining solution), then fixed and permeabilized using BD Perm/Wash™ Buffer (BD Biosciences), incubated with anti-caspase 1 antibody (Abcam, 30 min, 4° C., in BD Perm/Wash™ Buffer) followed by anti-rabbit Alexa 488 conjugated antibody (Life Technologies, 30 min, 4° C., in BD Perm/Wash™ Buffer). IL-1β levels were determined in cell-free supernatants using an anti-mouse IL-1β ELISA (Abcam) following manufacturer's instructions. Lactate dehydrogenase activity was measured in cell-free supernatants assessing the formation of NADH from NAD+ using a Lactate Dehydrogenase Assay kit (Sigma) following manufacturer's instructions.
In select experiments resolution indices were calculated as in ^27. Ψmax, maximal PMN numbers in exudates; Tmax, time point when PMN numbers reach maximum; R50, 50% of maximal PMN numbers; T50, time point when PMN numbers reduce to 50% of maximum; Ri (resolution interval), T50-Tmax, time period when 50% PMN are lost from the exudates. To assess the proresolving actions of the test products, these were administered 12 h after E. coli (10^5 CFU) inoculation, and resolution indices were assessed.
For some experiments, mice were administered via i.p. injection RvT1, RvT2, RvT3 and RvT4 (that were isolated as detailed below and combined as a mixture at a ratio of 2:1:1:8 respectively) 2 h after E. coli inoculation. Blood and lungs were harvested 6 h after E. Coli inoculation. Blood was employed to determine peripheral blood eicosanoid levels as detailed below.

[4] = system: human macrophages; test: Human macrophage phagocytosis, ROS and efferocytosis; assay type: cell-based; conditions: for In vitro: human macrophage efferocytosis of apoptotic neutrophils: summary table of bioactions; for In vitro: human macrophage and neutrophil intra-phagolysosomal ROS production / In vitro: human macrophage and neutrophil phagocytosis of E. coli: summary table, macrophages and neutrophils
Method: Macrophages were prepared from peripheral blood mononuclear cells (PBMC) purchased from Children's Hospital Blood Bank, Boston, and phagocytosis was assessed as in^31. Briefly, macrophages (5×10^4 cells/well) were incubated with RvT1 (1 pM-10 nM), 1:1 mixture RvT2 and RvT3 (1 pM-10 nM), RvT4 (1 pM-10 nM) or vehicle (0.1% EtOH in DPBS) for 15 min at 37° C., then fluorescent labeled apoptotic cells were added and cells incubated 45 min at 37° C. Extracellular fluorescence was quenched using Trypan blue (1:15 dilution) and phagocytosis assessed using an M3 SpectraMax plate reader (Molecular Devices). In select experiments, macrophages (prepared as detailed above, 5×10^4 cells/well) or neutrophils (1×10^5 cells/well), obtained from human healthy volunteers and isolated as in ^31 in accordance with Partners Human Research Committee Protocol (number 1999P001297), were incubated with H2DCFDA (5 μM, 30 min, 37° C.), excess dye was washed off and cells incubated with RvT1 (1 pM-10 nM), 1:1 mixture RvT2 and RvT3 (1 pM-10 nM), RvT4 (1 pM-10 nM) or vehicle (0.1% EtOH in DPBS, 15 min, 37° C.), then incubated with E. coli (1:50 leukocytes to E. coli, 45 min, 37° C.). Intracellular reactive oxygen species were determined by measuring fluorescence using an M3 SpectraMax plate reader. To assess bacterial phagocytosis, macrophages (5×10^4 cells/well) or neutrophils (1×10^5 cells/well) were incubated with RvT1 (1 pM-10 nM), 1:1 mixture RvT2 and RvT3 (1 pM-10 nM), RvT4 (1 pM-10 nM) or vehicle (0.1% EtOH in DPBS, 15 min, 37° C.), then incubated with BacLight Green (Molecular Probes) labeled E. coli (1:50 leukocytes to E. coli, 45 min, 37° C.). Extracellular fluorescence was then quenched using Trypan blue (1:15 dilution), and phagocytosis was assessed using an M3 SpectraMax plate reader.

[5] = system: human macrophages; test: Human macrophage caspase 1, IL-1β and lactate dehydrogenase; assay type: cell-based; conditions: for In vitro: E. coli induced inflammasome components in human macrophages / In vitro: E. coli induced macrophage pyroptosis: summary table of bioactions
Method: Human macrophages (1.5×10^4 cells/well) were incubated with RvT1 (10 pM-10 nM), 1:1 mixture RvT2 and RvT3 (10 pM-10 nM), RvT4 (10 pM-10 nM) or vehicle (0.1% EtOH in DPBS, 15 min, 37° C.), then E. coli (7.5×10^5 cells/well, in DPBS, 16 h, 37° C.). Caspase 1 levels were assessed in macrophages by flow cytometry after cell fixing and permeabilization, staining with an anti-caspase 1 (Abcam; 4° C., 30 min) and anti-rabbit-Alexa 488 conjugated antibody (Molecular Probes; 4° C., 30 min). IL-1β levels were determined in cell-free supernatants using an anti-human IL-1β ELISA (eBiosciences) following manufacturer's instructions. Lactate dehydrogenase activity was measured in cell-free supernatants assessing the formation of NADH from NAD+ using a Lactate Dehydrogenase Assay kit (Sigma) following manufacturer's instructions.

[6] = system: human neutrophils; test: Human neutrophil phagocytosis and ROS; assay type: cell-based; conditions: 1 pM-1.0 nM, n=4 donors
Method: Macrophages were prepared from peripheral blood mononuclear cells (PBMC) purchased from Children's Hospital Blood Bank, Boston, and phagocytosis was assessed as in^31. Briefly, macrophages (5×10^4 cells/well) were incubated with RvT1 (1 pM-10 nM), 1:1 mixture RvT2 and RvT3 (1 pM-10 nM), RvT4 (1 pM-10 nM) or vehicle (0.1% EtOH in DPBS) for 15 min at 37° C., then fluorescent labeled apoptotic cells were added and cells incubated 45 min at 37° C. Extracellular fluorescence was quenched using Trypan blue (1:15 dilution) and phagocytosis assessed using an M3 SpectraMax plate reader (Molecular Devices). […] Intracellular reactive oxygen species were determined by measuring fluorescence using an M3 SpectraMax plate reader. […] Extracellular fluorescence was then quenched using Trypan blue (1:15 dilution), and phagocytosis was assessed using an M3 SpectraMax plate reader.

Compound | In vitro: human macrophage efferocytosis of apoptotic neutrophils [4] | In vitro: human macrophage and neutrophil intra-phagolysosomal ROS production [4] | In vitro: human macrophage and neutrophil phagocytosis of E. coli [4] | In vivo: circulating platelet-leukocyte aggregates [3] | In vivo: exudate pro-inflammatory eicosanoid levels during infections [3] | In vivo: infection induced hypothermia [3] | In vivo: macrophage efferocytosis of apoptotic neutrophils [3] | In vivo: murine leukocyte phagocytosis of E. coli [3] | In vivo: neutrophil recruitment during infections [3] | In vivo: protective actions of atorvastatin in infections [3] | In vivo: pyroptosis [3] | In vitro: E. coli induced inflammasome components in human macrophages [5] | In vitro: E. coli induced macrophage pyroptosis [5] | also measured
COC(=O)[C@@H](N)CCCNC(=N)N[N+](=O)[O-] [L-NAME, L-NG-Nitroarginine Methyl Ester] | – | – | – | – | – | – | – | – | – | – | – | – | – | atorvastatin-mediated increases in plasma RvT ([1]; L-NAME 24 mg/kg prior to atorvastatin 5 μg/mouse i.v., E. coli 1×10^5 CFU/mouse): significantly reversed; neutrophil recruitment to the peritoneum ([1]; L-NAME prior to atorvastatin during mouse infections): increased
CC(C)c1c(C(=O)Nc2ccccc2)c(-c2ccccc2)c(-c2ccc(F)cc2)n1CC[C@@H](O)C[C@@H](O)CC(=O)O [atorvastatin] | – | – | – | – | – | – | – | – | – | – | – | – | – | RvT in neutrophil-endothelial cell co-cultures [2]: dose-dependent increases; PGI2 and 15-deoxy-Δ-12,14-PGJ2 ([3]; treatment 2 h after E. coli, blood 6 h after E. coli): increases; endothelin-1 and plasminogen activator inhibitor-1 ([3]; treatment 2 h after E. coli, lung mRNA 6 h after E. coli): reduced
7,8,13-trihydroxy-docosapentaenoic [RvT2] | Stimulates human | Stimulates human | Stimulates human | Reduces circulating platelet - | Reduces exudate pro- | Protects against infection | Stimulates macrophage | Stimulates murine leukocyte | Limits neutrophil recruitment | Elaborates the protective | Reduces pyroptosis | Reduces E. coli induced | Reduces E. coli induced | –
CCC(O)/C=C/C=C\C=C\C(O)C/C=C\C=C\C(O)CCCCCC(=O)O (centres unmarked) [RvT1, 7,13,20-trihydroxy-docosapentaenoic acid] | Stimulates human | Stimulates human | Stimulates human | Reduces circulating platelet- | Reduces exudate pro- | Protects against infection | Stimulates macrophage | Stimulates murine leukocyte | Limits neutrophil recruitment | Elaborates the protective | Reduces pyroptosis | Reduces E. coli induced | Reduces E. coli induced | E. coli phagocytosis in human macrophages ([4]; 1 pM-10 nM): dose-dependently increased; efferocytosis of apoptotic neutrophils by human macrophages ([4]; 1 pM-10 nM): dose-dependently increased; intracellular reactive oxygen species (ROS) in human macrophages ([4]; 1 pM-10 nM): dose-dependently increased; IL-1β expression, human macrophages ([5]; 10 pM-10 nM, E. coli 16 h): decreasing; caspase-1 expression, human macrophages ([5]; 10 pM-10 nM, E. coli 16 h): decreasing; extracellular lactate dehydrogenase activity, human macrophages ([5]; 10 pM-10 nM, E. coli 16 h): decreasing; increase in E. coli phagocytosis, human neutrophils [6]: 20-55%; increase in intracellular ROS, human neutrophils [6]: 20-40%
CC/C=C\C/C=C\C=C\C(O)C/C=C\C=C\C(O)CCCCCC(=O)O (centres unmarked) [RvT4, 7,13-dihydroxy-docosapentaenoic acid] | Stimulates human | Stimulates human | Stimulates human | Reduces circulating platelet- | Reduces exudate pro- | Protects against infection | Stimulates macrophage | Stimulates murine leukocyte | Limits neutrophil recruitment | Elaborates the protective | Reduces pyroptosis | Reduces E. coli induced | Reduces E. coli induced | –
CCC=CCC=CC=CC(O)C(O)C=CC=CC(O)CCCCCC(=O)O (centres unmarked) [RvT3, 7,12,13-trihydroxy-docosapentaenoic acid] | Stimulates human | Stimulates human | Stimulates human | Reduces circulating platelet- | Reduces exudate pro- | Protects against infection | Stimulates macrophage | Stimulates murine leukocyte | Limits neutrophil | Elaborates the protective | Reduces pyroptosis | Reduces E. coli induced | Reduces E. coli induced | –
